Source: ChEMBL document CHEMBL1136876, “On the inhibition of HIV-1 protease by hydrazino-ureas displaying the N-->C=O interaction” (Bioorg Med Chem, 2009)

Assays:
Protease [1] = biological target: T1, Protease (Human immunodeficiency virus 1, UniProt Q9YQ12); assay: Inhibition of HIV1 protease by FRET assay
Protease [2] = biological target: T1, Protease; assay: Inhibition of HIV1 protease by Lineweaver-Burke method
Protease [3] = biological target: T1, Protease; assay: Inhibition of HIV1 protease by Hanes method
Protease [4] = biological target: T1, Protease; assay: Inhibition of HIV1 protease by Dixon method

T1 sequence (Q9YQ12 whole entry): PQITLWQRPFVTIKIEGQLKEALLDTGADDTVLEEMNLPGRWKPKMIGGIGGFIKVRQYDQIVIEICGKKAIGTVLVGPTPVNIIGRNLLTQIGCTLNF

| Structure (SMILES) | IC50 (Protease [1]) [µM] | Ki (Protease [2]) [µM] | Ki (Protease [3]) [µM] | Ki (Protease [4]) [µM] |
| --- | --- | --- | --- | --- |
| O=C1N[C@@H](Cc2ccccc2)C([O-])[N+]2(CCCCC2)N1Cc1ccccc1 (some centres undefined) | 37.2 | 26.2 | 26.2 | 34.8 |
| O=C1N[C@H](Cc2ccccc2)C([O-])[N+]2(CCCCC2)N1Cc1ccccc1 (some centres undefined) | 543 | 461 | 461 | 454 |
| CC[C@H](C)[C@H](NC(=O)[C@@H](NC(C)(C)C)C(C)C)C(=O)NC(=O)[C@@H]1CCC[N+]12C([O-])[C@H](Cc1ccccc1)NC(=O)N2Cc1ccccc1 (some centres undefined) | 169 | 149 | 149 | 138 |
| CC(C)(C)NC(=O)[C@@H]1CCC[N+]12C([O-])[C@H](Cc1ccccc1)NC(=O)N2Cc1ccccc1 (some centres undefined) | 44.5 | 34.3 | 34.3 | 43.9 |
| C=CCOC(=O)N[C@]1(Cc2ccccc2)CC[N+]2(CCC[C@H]2C(=O)OC)C1[O-] (some centres undefined) | > 1000 | – | – | – |
| CC(C)[C@H](NC(C)(C)C)C(=O)NC(=O)[C@@H]1CCC[N+]12C([O-])[C@H](Cc1ccccc1)NC(=O)N2Cc1ccccc1 (some centres undefined) | 341 | 292 | 292 | 286 |
| CC(C)[C@H](N)C(=O)N[C@]1(Cc2ccccc2)CC[N+]2(CCC[C@H]2C(=O)NC(C)(C)C)C1[O-] (some centres undefined) | 545 | 574 | 618 | 577 |
| CC(C)[C@H](N)C(=O)N[C@]1(Cc2ccccc2)CC[N+]2(CCC[C@H]2C(=O)NC(=O)[C@@H](NC(C)(C)C)C(C)C)C1[O-] (some centres undefined) | 204 | 99 | 96 | 96 |
